Patent US10806794B2, “Protease inhibitors having enhanced features” (priority 2008, dated 2020)
Read-outs that look alike come from different tables or passages of the source.

Columns and labels:
HIV-1RF [1] = assay: Pre-exposure assay: CEM-SS cells treated before HIV-1RF infection, cell viability; type: cell-based; conditions: Human immunodeficiency virus 1, CEM-SS
Protocol: (§1) The effects of pre- and post-infection PI treatment on CEM-SS toxicity were assessed. […] Cell toxicity was monitored six days after infection using XTT reagent. In the post-exposure assay, test compounds were added to cells 0, 24, 48, or 72 h after HIV-1 infection, and cell viability was measured six days post-infection.

HIV-1RF [2] = assay: Post-exposure assay: compounds added after HIV-1 infection of CEM-SS cells, cell viability; type: cell-based; conditions: Human immunodeficiency virus 1, CEM-SS
Protocol: as §1

CEM-SS cells = assay: Post-exposure assay: toxicity in CEM-SS cells; conditions: human
Protocol: as §1

HIV-1RF [3] = assay: p24 levels after single high MOI HIV-1RF infection of CEM-SS cells, time of addition; type: cell-based
Protocol: The cytoprotective effect against HIV of the PEG-protease inhibitor conjugates was evaluated during a single round of high multiplicity of infection (“MOI”) HIV-1 infection in CEM-SS cells. CEM-SS cells were incubated for one hour with a single high MOI dose of HIV-1RF. Cells were washed to remove free virus, then test compounds were added to cells at 0, 2, 4, 6, 8, 16, or 24 hours after HIV-1 infection. To monitor viral replication, cell supernatants were analyzed at 30 hours post-infection for levels of the HIV capsid protein p24 (FIG. 1). […] Nevirapine inhibited viral replication at 1 μM when added to cells up to four hours post-infection, and at 10 μM when added up to eight hours post-infection.

HIV-1 virions = assay: Infectivity of HIV-1 virions from treated cells on naive CEM-SS cells; type: cell-based
Protocol: In concert with p24 analysis, cell supernatants collected from cells exposed to test compounds at 8, 16, or 24 hours post-infection were used to infect naïve CEM-SS cells. Cell viability was measured six days post-infection as a measure of virus infectivity (Table 5).

HIV-1 HT/92/599 = assay: HIV-1 reverse transcriptase activity after infection of fresh human PBMCs; type: cell-based; conditions: read-out: PBMC/HIV-1HT/92/599 EC50 ± SD; seven days, reverse transcriptase activity
Protocol: Fresh human peripheral blood mononuclear cells (PBMCs) obtained from a commercial source were purified following centrifugation using a Ficoll-Hypaque density gradient. Viable cells were induced to proliferate in the presence of PHA-P and recombinant human IL-2 for 72 hours. […] Cell supernatant containing HIV-1 viral was incubated for 90 minutes at 37° C. with a reaction mixture containing EGTA, Triton X-100, Tris (pH 7.4), DTT, MgCl2, poly rA, oligo dT, and tritiated thymidine triphosphate (TTP). Incorporation of TTP into DNA was monitored by spotting the reaction mixture onto a DEAE filter mat, followed by washes with 5% phosphate buffer, distilled water, and 70% ethanol, and subsequent drying of the mat. Radioactivity was measured using a Wallac 1450 Microbeta Trilux liquid scintillation counter using Opti-Fluor O. Test compound-associated toxicity was measured in PBMCs cultured for seven days in the absence of virus using XTT reagent. […] TI was calculated as TC50/EC50.

HIV-1BaL = assay: HIV-1 p24 levels after infection of fresh human monocyte/macrophages; type: cell-based; conditions: Human immunodeficiency virus 1, Monocyte, 168 h, read-out: Monocyte/HIV-1BaL EC50, seven days, p24
Protocol: Mononuclear cells were isolated from fresh human peripheral blood cells by Ficoll-Hypaque density gradient by centrifugation at 600 g for 30 minutes. Banded peripheral blood mononuclear cells (PBMCs) were aspirated from the resulting interface and washed with phosphate buffered saline by low speed centrifugation. […] Cells were allowed to attach for 2 to 12 h at 37° C., then washed with Dulbecco's phosphate buffered saline (DPBS). Monocyte-macrophage monolayer formation was induced by incubation in growth medium (RPMI 1640 medium supplemented with 10% fetal bovine serum, 2 mmol/L L-glutamine, 100 Units/mL penicllin and 10 μg/mL streptomycin) for 7 days. Residual PBMCs were removed by washing the cell monolayers with DPBS. After washing, test compound diluted in growth medium was added to cells. Immediately following test compound addition, HIV-1 virus was added to the cells at multiplicity of infection (MOI)=0.05-0.10. After 7 days in culture, HIV-1 replication was quantified by ELISA measurement of cell-free HIV-1 viral capsid protein (p24) in the tissue culture supernatant of treated monocyte-macrophage monolayers. ELISA to quantify p24 was performed according to manufacturer's instructions (Perkin Elmer, Waltham, Mass.). The quantity of free HIV-1 p24 antigen in the sample was determined by comparing its absorbance at 490 nm to that of control standards.
(§2) Fresh human monocytes were infected with the BaL strain of HIV-1 in the presence of test compounds. After seven days in culture, HIV-1 replication was evaluated by measurement of HIV-1 viral capsid protein (p24) in the tissue culture supernatant (Table 7). […] A TI was calculated as described above using TC50 values derived from cell toxicity data in response to test compounds in the absence of viral infection.

human monocytes = assay: Toxicity in human monocytes in the absence of viral infection; conditions: human
Protocol: as §2

[4] = Plasma protein binding by equilibrium dialysis, human plasma; type: in vitro ADME; conditions: human, plasma
Protocol: (§3) In assays to estimate binding of test compounds to plasma proteins, test compound solutions (5 μM) are prepared in buffer and species-specific plasma (final DMSO concentration 0.5%). The plasma-containing solution is added to one side of the membrane of an equilibrium dialysis system, and the plasma-free is added to the other side. Dialysis was allowed to reach equilibrium by incubation for two hours at 37° C. The concentration of compound on both sides of the membrane was measured using LC-MS/MS.

HIV-1RF [5] = assay: Anti-HIV cytoprotection in CEM-SS cells infected with HIV-1RF (XTT); type: cell-based; conditions: six days, XTT; read-out: CEM-SS/HIV-1RF EC50 ± SD
Protocol: To evaluate whether conjugated protease inhibitors retain the ability to protect against HIV-1 infection, CEM-SS cells infected with the RF strain of HIV-1 were treated with test compounds for six days, and then cell viability was monitored using the tetrazolium dye XTT. […] A value for Therapeutic Index (TI) was calculated as TC50/EC50.

Caco-2 cells = assay: Bi-directional permeability in Caco-2 monolayers; conditions: Caco-2 monolayers, apical to basolateral
Protocol: Absorption properties of various compounds were measured using bi-directional permeability assays in Caco-2 cells. […] The efflux ratio is calculated as the ratio of the Papp(B→A)/Papp(A→B).

[6] = Metabolic stability in human liver microsomes; conditions: human liver microsomes, 3 μM
Protocol: The human liver microsome-mediated biotransformation of PEG-PI compounds was determined by monitoring the loss of the substrate as a function of time. […] Test compounds (3 μM final concentration) were preincubated with pooled (male and female) human liver microsomes (0.5 mg/mL final protein concentration) in buffer (0.1M phosphate buffer, pH 7.4) at 37° C. Reactions were initiated by the addition of NADPH (1 mM final concentration), and allowed to continue for 0, 5, 15, 30, and 45 minutes. […] Sample supernatants are analyzed by liquid chromatography-tandem mass spectrometry.

human hepatocytes = assay: Metabolic stability in cryopreserved human hepatocytes; conditions: human hepatocytes
Protocol: Metabolism of PI conjugates was investigated by monitoring the levels of unmetabolized parent compound following incubation with cryopreserved human or monkey hepatocytes. The use of whole hepatocytes rather than microsomes requires that the drugs cross the cell membrane to interact with intracellularly-localized metabolic enzymes, and thus provides the most relevant in vitro system for understanding overall metabolic stability of these compounds.
Test compounds (0.1 μM or 3 μM, as indicated) are incubated with cryopreserved human hepatocytes at a cell density of 0.5×10^6 viable cells/mL. […] Duplicate samples (50 μL) are removed from the incubation mixture at various timepoints up to four hours (for 0.1 μM test compound concentration), or one or two hours (for 3 μM test compound concentration), and the reaction is quenched by the addition of methanol containing internal standard (100 μL). The samples are centrifuged (2500 rpm at 4° C. for 20 min), and the supernatants at each time point pooled for cassette analysis by LC-MS/MS.

CYP3A4 [7] = target: T1, CYP3A4 (Homo sapiens (Human), UniProt P08684); assay: Metabolic stability in CYP3A4-expressing Bactosomes; type: in vitro ADME; conditions: 5 μM
T1 sequence (P08684 whole entry, canonical isoform): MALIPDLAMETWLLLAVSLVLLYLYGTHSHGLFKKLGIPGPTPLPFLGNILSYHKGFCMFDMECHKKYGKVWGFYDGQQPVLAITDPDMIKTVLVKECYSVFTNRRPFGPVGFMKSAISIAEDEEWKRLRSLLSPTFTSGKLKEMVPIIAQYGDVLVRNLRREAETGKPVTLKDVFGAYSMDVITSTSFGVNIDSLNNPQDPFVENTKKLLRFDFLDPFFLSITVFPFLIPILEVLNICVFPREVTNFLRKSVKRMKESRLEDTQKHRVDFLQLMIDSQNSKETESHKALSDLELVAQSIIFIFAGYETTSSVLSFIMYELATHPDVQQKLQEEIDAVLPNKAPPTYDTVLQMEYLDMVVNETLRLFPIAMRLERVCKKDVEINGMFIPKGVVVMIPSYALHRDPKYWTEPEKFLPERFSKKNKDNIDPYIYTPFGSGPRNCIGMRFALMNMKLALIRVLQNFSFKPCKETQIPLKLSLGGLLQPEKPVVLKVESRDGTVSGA
Protocol: (§4) Compounds were evaluated for their propensity to act as substrates of individual human cytochrome P450 enzymes using a bacterial membrane preparation co-expressing human NADPH-cytochrome P450 reductase with either human CYP3A4 or CYP2D6 (Bactosomes™ Cypex, Ltd., Dundee, UK). In vitro metabolism studies using Bactosomes™ expressing individual human CYP isoforms monitor the extent to which a test compound is metabolized by a single CYP450 enzyme and allow identification of the CYP isoforms that may be responsible for the metabolism of a test compound. Timecourse analyses of test molecules (5 μM) with CYP2D6- or CYP3A4-expressing Bactosomes™ (100 pmol/mL) are performed in buffer (0.1 M phosphate, pH 7.4) in a final reaction volume of 25 μL. […] Reactions are terminated by the addition of methanol (50 μL) containing internal standard at 0, 5, 15, 30, and 45 minutes.

CYP2D6 = CYP2D6 (Homo sapiens (Human), UniProt P10635); assay: Metabolic stability in CYP2D6-expressing Bactosomes; type: in vitro ADME; conditions: 5 μM
Chain of CYP2D6 (P10635 whole entry): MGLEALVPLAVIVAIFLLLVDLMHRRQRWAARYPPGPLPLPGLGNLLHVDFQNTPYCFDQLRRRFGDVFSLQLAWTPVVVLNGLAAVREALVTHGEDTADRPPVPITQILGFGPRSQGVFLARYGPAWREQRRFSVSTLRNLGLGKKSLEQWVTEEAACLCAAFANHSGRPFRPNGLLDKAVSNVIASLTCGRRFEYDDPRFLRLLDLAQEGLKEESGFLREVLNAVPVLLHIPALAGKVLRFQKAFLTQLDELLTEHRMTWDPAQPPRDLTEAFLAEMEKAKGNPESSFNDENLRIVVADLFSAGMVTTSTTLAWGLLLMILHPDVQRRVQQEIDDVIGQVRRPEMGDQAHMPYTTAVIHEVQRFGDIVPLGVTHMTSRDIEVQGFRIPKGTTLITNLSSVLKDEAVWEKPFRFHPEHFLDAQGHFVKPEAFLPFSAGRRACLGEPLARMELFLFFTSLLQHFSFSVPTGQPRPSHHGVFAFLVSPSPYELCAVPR
Protocol: as §4

human plasma proteins = assay: Plasma protein binding by equilibrium dialysis, human plasma; type: in vitro ADME; conditions: human plasma, 5 μM, fraction unbound
Protocol: as §3

[8] = system: human liver microsomal proteins; assay: Microsomal protein binding by equilibrium dialysis; type: in vitro ADME; conditions: human liver microsomes, 3 μM, fraction unbound
Protocol: PEGylated protease inhibitors were evaluated for their propensity to be bound by proteins in normal human plasma or in human liver microsome preparations using equilibrium dialysis analysis. For microsomal protein binding, test compound (final concentration=3 μM) was diluted into either buffer alone or buffer containing human liver microsomes. The protein-free and microsome-containing solutions were then added to either side of an equilibrium dialysis system and allowed to reach equilibrium at 37° C. The concentration of compound on both sides of the membrane at equilibrium was quantified by LC-MS/MS, and the fraction of compound that remains unbound (Fu) is calculated.

CYP3A4 [9] = target: T1, CYP3A4; assay: CYP450 inhibition in human liver microsomes: CYP3A4;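 note: incubation at 37 °C started by adding 1 mM NADPH, with formation of the probe metabolite measured via LC-MS/MS or fluorescent detection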

CC(C)(C)NC(=O)[C@@H]1C[C@@H]2CCCC[C@@H]2CN1C[C@@H](O)[C@H](Cc1ccccc1)NC(=O)[C@H](CC(N)=O)NC(=O)c1ccc2ccccc2n1 [Saquinavir]
EC50 (HIV-1RF [1]; 2 h): 20 nM
EC50 (HIV-1RF [1]; 8 h): 50 nM
EC50 (HIV-1RF [1]; 24 h): 40 nM
EC50 (HIV-1RF [2]; 0 h): < 3 nM
EC50 (HIV-1RF [2]; 24 h): 4 nM
EC50 (HIV-1RF [2]; 48 h): 5 nM
EC50 (HIV-1RF [2]; 72 h): 10 nM
TC50 (CEM-SS cells; 3 days): >1000 nM
TC50 (CEM-SS cells; 4 days): >1000 nM
TC50 (CEM-SS cells; 5 days): >1000 nM
TC50 (CEM-SS cells; 6 days): >1000 nM
time of addition up to which antiviral activity (reduced p24) was seen (HIV-1RF [3]; 0.1 μM): up to 16 hours post-infection
time of addition up to which antiviral activity (reduced p24) was seen (HIV-1RF [3]; 1 μM): up to 24 hours post-infection
Percent Infectivity of HIV-1 Virions in comparison to virus-alone control (HIV-1 virions; 0.01 μM, added 8 h post-infection): 100.0%
Percent Infectivity of HIV-1 Virions in comparison to virus-alone control (HIV-1 virions; 0.01 μM, added 16 h post-infection): 117.0%
Percent Infectivity of HIV-1 Virions in comparison to virus-alone control (HIV-1 virions; 0.01 μM, added 24 h post-infection): 404.8%
Percent Infectivity of HIV-1 Virions in comparison to virus-alone control (HIV-1 virions; 0.1 μM, added 8 h post-infection): 5.6%
Percent Infectivity of HIV-1 Virions in comparison to virus-alone control (HIV-1 virions; 0.1 μM, added 16 h post-infection): 10.0%
Percent Infectivity of HIV-1 Virions in comparison to virus-alone control (HIV-1 virions; 0.1 μM, added 24 h post-infection): 128.0%
reduction of virion infectivity vs virus-only control (HIV-1 virions; 1 μM at 24 hours post-infection): ~90%
Percent Infectivity of HIV-1 Virions in comparison to virus-alone control (HIV-1 virions; 1 μM, added 8 h post-infection): 0.1%
Percent Infectivity of HIV-1 Virions in comparison to virus-alone control (HIV-1 virions; 1 μM, added 16 h post-infection): 7.8%
Percent Infectivity of HIV-1 Virions in comparison to virus-alone control (HIV-1 virions; 1 μM, added 24 h post-infection): 12.8%
reduction of virion infectivity vs virus-only control (HIV-1 virions; 0.1 or 1 μM at 8 and 16 hours post-infection): at least 90%
EC50 (HIV-1 HT/92/599): 9 nM
EC50 (HIV-1BaL): 40 nM
TC50 (human monocytes): >1000 nM
fraction unbound at 2 h, 5 μM [4]: 0.0353 ± 0.00151

COCCOCCOCCNc1ccc(S(=O)(=O)N(CC(C)C)CC(O)[C@H](Cc2ccccc2)NC(=O)O[C@H]2CO[C@H]3OCC[C@H]32)cc1 (some centres unmarked) [mPEG3-N-Darunavir]
EC50 (HIV-1RF [5]): < 0.7 nM
A→B, ×10^−6 (Caco-2 cells): 2.52 cm/s
CLint ± SEM [6]: 385 ± 0.718 μL/min/mg protein
t1/2 [6]: 3.60 min
CLint ± SEM (human hepatocytes; 0.1 uM, up to four hours): 48.0 ± 4.75 μL/min/10^6 cells
t1/2 (human hepatocytes; 0.1 uM, up to four hours): 28.9 min
CLint ± SEM (human hepatocytes; 3 uM, incubated up to one hour): 18.2 ± 1.47 μL/min/10^6 cells
3A4 t1/2 ± SEM (CYP3A4 [7]): 66.6 ± 4.88 min
2D6 t1/2 ± SEM (CYP2D6): 68.4 ± 18.9 min
Plasma Protein Binding Fu ± SD (human plasma proteins): 0.236 ± 0.0292
Microsomal Protein Binding Fu ± SD [8]: 0.96 ± 0.0407
IC50 (CYP3A4 [9]; read-out: CYP3A4 IC50 Midazolam, probe substrate midazolam): 1200 nM
IC50 (CYP3A4 [9]; read-out: CYP3A4 IC50 Testosterone, probe substrate testosterone): 3100 nM
